Reference: PubChem BioAssay (NCI)
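The compound was tested at five concentrations on cells cultured in 96-well plates, with a 48-hour exposure period. Abbreviation: GI50, concentration required for 50% inhibition of growth. Definition used: TGI = concentration required for complete inhibition of growth.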

Tests used:
Experiment in all cases: NCI tumour cell line growth inhibition, 48 h
SR leukemia = test system: SR leukemia
DMS 273 small cell lung = test system: DMS 273 small cell lung
DLD-1 colon = test system: DLD-1 colon
M19-MEL melanoma = test system: M19-MEL melanoma
DMS 114 small cell lung = test system: DMS 114 small cell lung
HOP-18 NSCLC = test system: HOP-18 NSCLC
RXF-631 renal = test system: RXF-631 renal
SNB-78 CNS = test system: SNB-78 CNS
MDA-MB-435 = test system: MDA-MB-435
DU-145 prostate = test system: DU-145 prostate
XF 498 CNS = test system: XF 498 CNS
P388/ADR leukemia = test system: P388/ADR leukemia
SN12K1 renal = test system: SN12K1 renal
P388 leukemia = test system: P388 leukemia

Compound | TGI (SR leukemia) [µM] | TGI (DMS 273 small cell lung) [µM] | TGI (DLD-1 colon) [µM] | TGI (M19-MEL melanoma) [µM] | TGI (DMS 114 small cell lung) [µM] | TGI (HOP-18 NSCLC) [µM] | TGI (SNB-78 CNS) [µM] | TGI (MDA-MB-435) [µM] | TGI (DU-145 prostate) [µM] | TGI (XF 498 CNS) [µM] | also measured
Cc1ccc(S(=O)(=O)N/N=c2\c(C)c(C3=NS(=O)(=O)c4cc(S(N)(=O)=O)c(Cl)cc4N3)oc3c(Cl)cc(Cl)cc23)cc1 | > 100 | 54 | > 100 | > 100 | > 100 | > 100 | > 100 | – | – | – | TGI (RXF-631 renal): > 100 µM
O=[N+]([O-])c1ccc2c(c1)Nc1c3ccccc3nc3cccc-2c13 | 8.91 | – | – | – | – | – | – | 36 | 9.43 | – | –
Cc1cc2c(cc1C)[n+](=O)c(C#N)c(Cl)n2[O-] | > 100 | – | – | – | – | – | – | > 100 | 43.4 | – | –
CC(C)OC(=O)C1=C(O)c2ccccc2S(=O)(=O)N1 | – | > 100 | > 100 | > 100 | – | > 100 | > 100 | – | – | > 100 | TGI (RXF-631 renal): > 100 µM
O=C(O)NCc1ccccc1 (tested in a mixture with another compound) | 12.8 | – | – | – | – | – | – | > 86.8 | > 100 | – | –
CCOC(=O)[C@H]1Nc2c(cccc2[N+](=O)[O-])[C@H]2OCC[C@@H]12 | > 100 | > 100 | > 100 | > 100 | > 100 | > 100 | > 100 | – | – | > 100 | TGI (RXF-631 renal): > 100 µM
Oc1c2c(c3c4c1N=CC=4CCN=3)-c1c(Br)cc(Br)cc1CCN2 | – | 11.8 | 3.85 | 3.33 | 7.12 | 7.91 | 29.2 | – | – | > 38.5 | TGI (P388/ADR leukemia): 5.83 µM; TGI (SN12K1 renal): 15.4 µM
C=C1CC[C@@H](Br)C(C)(C)[C@]12CCC(C)(O)C(Cl)C2 (stereo partly drawn) | – | 36.2 | 32.6 | 34.3 | 31.8 | 59.1 | > 100 | – | – | – | TGI (RXF-631 renal): 41.9 µM
CC(=O)OC/C=C/Cn1ncc(=O)[nH]c1=O | – | – | – | – | – | – | – | > 100 | > 100 | – | –
Nc1nncc2c1ccn2C1OC(CO)C(O)C1O (stereo not drawn) | > 100 | > 100 | > 100 | > 100 | > 100 | > 100 | > 100 | – | – | – | –
CC1CCC(O)(C(C)(C(=O)O)c2ccccc2)CC1 (stereo not drawn) | – | – | – | – | – | – | – | > 100 | > 100 | – | –
COc1cc(N/N=C/C#N)cc(OC)c1OC | > 10 | – | – | – | – | – | – | > 10 | > 10 | – | –
CCOC(=O)Nc1cc2c(c(N)n1)N=C(c1ccccc1)[C@H](C)N2 | – | – | 25.1 | 29.2 | < 0.0001 | > 100 | – | < 0.0001 | – | < 0.0001 | GI50 (HOP-18 NSCLC): 29.1 µM
O=C(O)CCSCc1ccc(I)cc1 | – | – | – | – | – | – | – | > 100 | > 100 | – | –
CCC1CN2CCC1CC2 (stereo not drawn) | – | > 100 | > 100 | > 100 | > 100 | > 100 | > 100 | – | – | > 100 | TGI (P388 leukemia): > 100 µM; TGI (P388/ADR leukemia): > 100 µM; TGI (SN12K1 renal): > 100 µM
O=C(N/C(=C\c1cccc([N+](=O)[O-])c1)c1nc2[nH]c(=S)[nH]c(=O)c2[nH]1)c1ccccc1 | > 100 | – | > 100 | > 100 | > 100 | > 100 | > 100 | – | – | > 100 | TGI (RXF-631 renal): > 100 µM
NC(=S)Nc1cc(Cl)ccc1Cl | > 100 | > 100 | > 100 | > 100 | > 100 | > 100 | > 100 | – | – | > 100 | TGI (RXF-631 renal): > 100 µM
CCCCCCCCCCCCCCCC(=O)OCC1CCCN2CCCCC12 (stereo not drawn) | – | – | – | – | – | – | – | > 100 | > 100 | – | –
C/C(=N\Oc1cc(Cl)ncn1)c1ccccn1 | > 100 | – | – | – | – | – | – | > 100 | > 100 | – | –
CC[C@H](Nc1nc(N)nc(C)c1C#N)c1nc2cccc(NCc3ccc(C(=O)NO)cc3)c2c(=O)n1-c1ccccc1 | > 100 | – | – | – | – | – | – | – | 6.53 | – | GI50 (SR leukemia): 0.697 µM; GI50 (DU-145 prostate): 1.98 µM
O=C(CCl)NC(Cc1ccc(F)cc1)C(=O)O (stereo not drawn) | – | > 100 | > 100 | > 100 | > 100 | > 100 | > 100 | – | – | > 100 | TGI (P388 leukemia): > 100 µM; TGI (P388/ADR leukemia): > 100 µM; TGI (SN12K1 renal): > 100 µM
